# In patent US20120232070A1, “Use of Indole Derivatives as Nurr-1 Activators for the Application Thereof as a Medicament for the Treatment of Parkinson's Disease” (Laboratoires Fournier SA, priority 2009, published 2012):
# Experiments:
# [1] = molecular target: hNurr1_RXRγFL (NURR1/RXRγ heterodimer) (Homo sapiens, UniProt P43354+P48443); test: Transactivation assay in Cos-7 cells, NURR-1-Gal4 / RXRγ, luciferase reporter; assay type: cell-based; conditions: for Emax: COS-7, read-out: hNurr1_RXRγFL Eff (%), efficacy in % relative to the reference XCT0135908 at 2·10^−5 M (=100%); for EC50: Cos-7 cells, overnight incubation
# Description: (§1) First, the capacity of the compounds according to the invention for acting as an activator of the heterodimers formed by the NURR-1 nuclear receptor and the RXR nuclear receptors was measured by an in vitro assay.
# (§2) A transactivation assay was used as a primary screening assay. Cos-7 cells were co-transfected with a plasmid expressing a chimera of the human receptor NURR-1-Gal4, a plasmid expressing the human receptor RXR (RXRα or RXRγ receptor) and a reporter plasmid 5Gal4pGL3-TK-Luc. The transfections were performed by means of a chemical agent (Jet PEI).
# (§3) The transfected cells were distributed in 384-well plates and left resting for 24 hours.
# (§4) After 24 hours, the culture medium was changed. The products according to the invention were added (final concentration between 10^−4 and 3·10^−10 M) to the culture medium. After overnight incubation, luciferase expression was measured after addition of “SteadyGlo” according to the manufacturer's instructions (Promega).
# (§5) 4-[[6-Methyl-2-phenyl-5-(2-prop enyl)-4-pyrimidinyl]amino]-benzoic acid (called XCT0135908, which was described in the article by Wallen-Mackenzie et al. published in Genes & Development 17, pages 3036-3047) at 2·10^−5 M (RXR agonist) was used as reference.
# (§6) The levels of induction (designated by “efficiency”) were calculated relative to the baseline activity of each heterodimer. The results were expressed as a percentage of the level of induction relative to the level of induction obtained with the reference (the level of induction of the reference is arbitrarily taken to be 100%).
# [2] = molecular target: hNurr1_RXRαFL (NURR1/RXRα heterodimer) (Homo sapiens, UniProt P19793+P43354); test: Transactivation assay in Cos-7 cells, NURR-1-Gal4 / RXRα, luciferase reporter; assay type: cell-based; conditions: for Emax: COS-7, read-out: hNurr1_RXRαFL Eff (%), efficacy in % relative to the reference XCT0135908 at 2·10^−5 M (=100%); for EC50: Cos-7 cells, overnight incubation
# Description: as §1, §2, §3, §4, §5, §6
# [3] = efficacy in % relative to the reference XCT0135908 at 2·10^−5 M (=100%)
# hNurr1_RXRγFL (NURR1/RXRγ heterodimer), sequence (P43354 328-598): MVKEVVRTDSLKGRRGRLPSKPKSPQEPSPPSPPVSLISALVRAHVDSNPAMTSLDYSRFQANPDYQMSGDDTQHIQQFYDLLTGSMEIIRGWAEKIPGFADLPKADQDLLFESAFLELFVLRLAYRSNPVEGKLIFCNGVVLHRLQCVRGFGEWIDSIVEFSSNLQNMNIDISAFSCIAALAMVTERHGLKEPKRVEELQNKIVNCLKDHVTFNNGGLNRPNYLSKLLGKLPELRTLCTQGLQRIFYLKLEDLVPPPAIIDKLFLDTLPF
# hNurr1_RXRγFL (NURR1/RXRγ heterodimer), sequence (P48443 whole entry, the tested form may be a part): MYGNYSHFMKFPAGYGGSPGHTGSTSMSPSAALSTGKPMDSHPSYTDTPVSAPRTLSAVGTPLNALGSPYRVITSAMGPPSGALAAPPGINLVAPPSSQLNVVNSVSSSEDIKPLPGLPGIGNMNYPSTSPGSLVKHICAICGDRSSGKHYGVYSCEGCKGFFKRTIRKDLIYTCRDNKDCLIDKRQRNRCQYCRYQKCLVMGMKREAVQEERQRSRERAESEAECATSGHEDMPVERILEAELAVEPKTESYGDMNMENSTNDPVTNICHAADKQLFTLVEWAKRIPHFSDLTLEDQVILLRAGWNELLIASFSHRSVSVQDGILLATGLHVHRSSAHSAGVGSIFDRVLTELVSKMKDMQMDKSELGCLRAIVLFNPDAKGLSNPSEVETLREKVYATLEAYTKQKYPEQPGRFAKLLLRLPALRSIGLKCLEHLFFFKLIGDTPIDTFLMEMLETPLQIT
# hNurr1_RXRαFL (NURR1/RXRα heterodimer), sequence (P19793 whole entry, the tested form may be a part): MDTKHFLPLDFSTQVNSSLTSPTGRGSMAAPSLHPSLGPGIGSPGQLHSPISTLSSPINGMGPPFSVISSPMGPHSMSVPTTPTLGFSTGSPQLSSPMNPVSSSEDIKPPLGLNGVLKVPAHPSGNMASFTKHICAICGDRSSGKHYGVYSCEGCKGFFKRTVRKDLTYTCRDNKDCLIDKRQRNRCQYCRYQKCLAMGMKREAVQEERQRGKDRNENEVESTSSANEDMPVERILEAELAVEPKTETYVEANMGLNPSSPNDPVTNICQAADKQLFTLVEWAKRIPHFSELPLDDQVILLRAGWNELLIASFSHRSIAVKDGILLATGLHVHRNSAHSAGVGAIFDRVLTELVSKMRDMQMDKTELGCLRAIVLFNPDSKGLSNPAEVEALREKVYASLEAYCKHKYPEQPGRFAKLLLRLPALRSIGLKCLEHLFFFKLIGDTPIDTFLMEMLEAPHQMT
# hNurr1_RXRαFL (NURR1/RXRα heterodimer), sequence (P43354 328-598): as the sequence (P43354 328-598) above
Structure (SMILES),Emax [1] [%],EC50 [1] [µM],Emax [2] [%],EC50 [2] [µM],"hNurr1_RXRγFL Eff (%) [1, 3] [%]","hNurr1_RXRαFL Eff (%) [2, 3] [%]"
"Cc1cccc(S(=O)(=O)n2c(Cc3ccc(C(=O)O)cc3)cc3cc(C(F)(F)F)ccc32)c1 [Example 141, 4-[[1-[(3-methylphenyl)sulfonyl]-5-(trifluoromethyl)-1H-indol-2-yl]methyl]benzoic acid]",30,0.364,41,0.285,–,–
"CCCCCc1ccc(S(=O)(=O)n2c(Cc3ccc(C(=O)O)cc3)cc3cc(C(F)(F)F)ccc32)cc1 [Example 140, 4-[[1-[4-pentyl-benzenesulfonyl]-5-(trifluoromethyl)-1H-indol-2-yl]methyl]benzoic acid]",22,0.387,46,0.368,–,–
"O=C(O)c1ccc(Cc2cc3cc(Cl)ccc3n2S(=O)(=O)c2ccc(C(F)(F)F)cc2)cc1 [Example 158, 4-[[1-[4-trifluoro-phenylsulfonyl]-5-(chloro)-1H-indol-2-yl]methyl]benzoic acid]",53,1.26,66,0.504,–,–
"CC(C)c1ccc(S(=O)(=O)n2c(Cc3ccc(C(=O)O)c(O)c3)cc3cc(Cl)ccc32)cc1 [Example 99, 4-[[5-chloro-1-[[4-(1-methylethyl)phenyl]sulfonyl]-1H-indol-2-yl]methyl]-2-hydroxybenzoic acid]",42,0.989,50,0.569,–,–
"CCC(C)(C)c1ccc(S(=O)(=O)n2c(Cc3ccc(C(=O)O)cc3)cc3cc(Cl)ccc32)cc1 [Example 168, 4-[[5-chloro-1-[[4-(1,1-dimethylpropyl)phenyl]sulfonyl]-1H-indol-2-yl]methyl]benzoic acid]",52,0.501,48,0.422,–,–
"COc1ccc(S(=O)(=O)n2c(Cc3ccc(C(=O)O)cc3)cc3cc(Cl)ccc32)cn1 [Example 169, 4-[[5-chloro-1-[(6-methoxy-3-pyridinyl)sulfonyl]-1H-indol-2-yl]methyl]benzoic acid]",28,2.49,46,1.01,–,–
"Cc1cc(S(=O)(=O)n2c(Cc3ccc(C(=O)O)cc3)cc3cc(C(F)(F)F)ccc32)ccc1Cl [Example 121, 4-[[1-[4-chloro-3-methyl-phenylsulfonyl]-5-(trifluoromethyl)-1H-indol-2-yl]methyl]benzoic acid]",56,0.433,65,0.192,–,–
"CC(C)c1cccc(S(=O)(=O)n2c(Cc3ccc(C(=O)O)cc3)cc3cc(N4CCCC4)ccc32)c1 [Example 116, 4-[[1-[[3-(1-methylethyl)phenyl]sulfonyl]-5-(pyrrolidin)-1H-indol-2-yl]methyl]benzoic acid]",–,1.45,–,0.871,50,74
"O=C(O)c1ccc(Cc2cc3cc(C(F)(F)F)ccc3n2S(=O)(=O)c2ccc(N3CCOCC3)nc2)cc1 [Example 135, 4-[[1-[[6-(4-morpholinyl)-3-pyridinyl]sulfonyl]-5-(trifluoromethyl)-1H-indol-2-yl]methyl]benzoic acid]",19,0.917,31,0.643,–,–
"CC(C)(C)c1cccc(S(=O)(=O)n2c(Cc3ccc(C(=O)O)cc3)cc3cc(C(F)(F)F)c(F)cc32)c1 [Example 117, 4-[[1-[[3-(1,1-dimethylethyl)phenyl]sulfonyl]-5-(trifluoro)-6-fluoro-1H-indol-2-yl]methyl]benzoic acid]",73,0.091,84,0.039,–,–
"O=C(O)c1ccc(Cc2cc3cc(C(F)(F)F)ccc3n2S(=O)(=O)c2ccc(Cl)cc2)cc1 [Example 136, 4-[[1-[4-chloro-phenylsulfonyl]-5-(trifluoromethyl)-1H-indol-2-yl]methyl]benzoic acid]",25,> 10,35,0.275,–,–
"O=C(O)c1ccc(Cc2cc3cc(Cl)ccc3n2S(=O)(=O)c2cccc(C(F)(F)F)c2)cc1 [Example 28, 4-[[5-chloro-1-[[3-(trifluoromethyl)phenyl]sulfonyl]-1H-indol-2-yl]-methyl]benzoic acid]",67,0.443,78,0.332,–,–
"COc1cccc(S(=O)(=O)n2c(Cc3ccc(C(=O)O)cc3)cc3cc(Cl)ccc32)c1 [Example 166, 4-[[1-[3-methoxy-phenylsulfonyl]-5-(chloro)-1H-indol-2-yl]methyl]benzoic acid]",27,1.07,50,0.681,–,–
"O=C(O)c1ccc(Cc2cc3cc(Cl)ccc3n2S(=O)(=O)c2ccc(Cl)cc2)cc1 [Example 160, 4-[[1-[4-chloro-phenylsulfonyl]-5-(chloro)-1H-indol-2-yl]methyl]benzoic acid]",55,1.39,59,0.462,–,–
"COC(=O)c1ccc(Cc2cc3cc(C(F)(F)F)c(F)cc3n2S(=O)(=O)c2cccc(C(C)(C)C)c2)cc1 [Example 110, 4-[[1-[[3-(1,1-dimethylethyl)phenyl]sulfonyl]-5-(trifluoro)-6-fluoro-1H-indol-2-yl]methyl]benzoic acid, methyl ester]",95,0.063,92,0.015,–,–
"Cc1c(Cc2ccc(C(=O)O)cc2)n(S(=O)(=O)c2cccc(C(C)(C)C)c2)c2ccc(C(F)(F)F)cc12 [Example 189, 4-[[1-[[3-(1,1-dimethylethyl)phenyl]sulfonyl]-3-methyl-5-(trifluoromethyl)-1H-indol-2-yl]methyl]-benzoic acid]",90,0.263,83,0.12,–,–
"O=C(O)c1ccc(Cc2cc3cc(Cl)ccc3n2S(=O)(=O)c2ccc(-c3ccc(F)cc3)cc2)cc1 [Example 179, 4-[[1-[4′-fluoro-biphenyl-4-sulfonyl]-5-(chloro)-1H-indol-2-yl]methyl]benzoic acid]",26,> 10,62,0.331,–,–
"CC(C)(C)c1cccc(S(=O)(=O)n2c(Cc3ccc(-c4nn[nH]n4)cc3)cc3cc(C(F)(F)F)ccc32)c1 [Example 221, 4-[1-[3-(1,1-dimethylethyl)phenyl]sulfonyl]-5-(trifluoromethyl)-1H-indol-2H-tetrazol-5-yl-benzyl]",57,0.162,66,0.191,–,–
"CC(C)(C)c1cccc(S(=O)(=O)n2c(Cc3cccc(C(=O)O)c3)cc3cc(C(F)(F)F)ccc32)c1 [Example 8, 3-[[1-[[3-(1,1-dimethylethyl)phenyl]sulfonyl]-5-(trifluoromethyl)-1H-indol-2-yl]methyl]benzoic acid]",74,0.099,96,0.101,–,–
"COC(=O)c1ccc(Cc2cc3cc(Cl)ccc3n2S(=O)(=O)c2ccc(C(C)C)cc2)cc1 [Example 40, 4-[[5-chloro-1-[[4-(1-methylethyl)phenyl]sulfonyl]-1H-indol-2-yl]methyl]benzoic acid, methyl ester]",75,2.11,96,0.56,–,–
"O=C(O)c1ccc(Cc2cc3cc(C(F)(F)F)ccc3n2S(=O)(=O)c2ccc(Cl)c(OC(F)F)c2)cc1 [Example 147, 4-[[1-[4-chloro-3-difluoromethoxy-phenylsulfonyl]-5-(trifluoromethyl)-1H-indol-2-yl]methyl]benzoic acid]",30,1.1,49,0.825,–,–
"C=C(c1ccc(C(=O)O)cc1)c1cc2cc(Cl)ccc2n1S(=O)(=O)c1ccc(C(C)C)cc1 [Example 102, 4-[1-[1[[4-(1-methylethyl)phenyl]sulfonyl]-5-(chloro)-1H-indol-2-yl]-1-ethenyl]-benzoic acid]",27,0.676,49,0.363,–,–
CC(C)(C)c1cccc(S(=O)(=O)n2c(Cc3ccc(C(=O)O)cn3)cc3cc(C(F)(F)F)ccc32)c1 [Example 66],79,0.11,80,0.071,–,–
"O=C(O)c1ccc(Cc2cc3cc(C(F)(F)F)ccc3n2S(=O)(=O)c2cc3ccccc3o2)cc1 [Example 122, 4-[[1-[benzofuran-2-sulfonyl]-5-(trifluoromethyl)-1H-indol-2-yl]methyl]benzoic acid]",54,0.68,62,0.353,–,–
"CCCc1ccc(S(=O)(=O)n2c(Cc3ccc(C(=O)O)cc3)cc3cc(Cl)ccc32)cc1 [Example 152, 4-[[1-[4-propyl-phenylsulfonyl]-5-(chloro)-1H-indol-2-yl]methyl]benzoic acid]",75,0.858,87,0.269,–,–
